# Laboratory results taken from patent publication US9718817B2, “Aryl and heteroaryl ether compounds as ROR gamma modulators” (Glenmark Pharmaceuticals S.A., priority 2014, dated 2017).
# Biological target: T1, GST-tagged ROR gamma ligand binding domain (LBD) (Homo sapiens, UniProt P51449)
# T1 construct: purchased Invitrogen
# T1 sequence (P51449 269-508 limits assumed): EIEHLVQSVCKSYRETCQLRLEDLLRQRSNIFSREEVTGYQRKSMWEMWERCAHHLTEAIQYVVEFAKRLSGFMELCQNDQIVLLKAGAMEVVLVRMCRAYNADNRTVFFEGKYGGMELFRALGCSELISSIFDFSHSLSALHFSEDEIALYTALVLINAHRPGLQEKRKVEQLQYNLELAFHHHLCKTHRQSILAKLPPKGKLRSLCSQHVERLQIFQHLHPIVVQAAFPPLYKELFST
# Test: TR-FRET assay for ROR gamma (LanthaScreen co-activator peptide recruitment)
# Format: biochemical
# Conditions: for IC50: class symbols, from dose response curve; for inhibition at 1 µM: compound 1 μM; for inhibition at 1 µM / inhibition at 10 µM: TR-FRET ratio 520/495, percent of control; for inhibition at 10 µM: compound 10 μM
# How it was run: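 Antagonist mode: 10 nM GST-RORγ LBD pre-incubated with compound 1 h at 22 °C in 25 mM HEPES pH 7.4, 100 mM NaCl, 5 mM DTT, 0.01% BSA, 4% DMSO final. Then 300 nM fluorescein-D22 co-activator peptide plus 10 nM Tb-anti-GST added, 1 h at room temperature. IC50 by nonlinear regression of the 520/495 TR-FRET ratio as percent of no-compound control.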
SMILES,IC50,inhibition at 1 µM,inhibition at 10 µM
"CCS(=O)(=O)c1ccc(CC(=O)Nc2ccc(C#CCOc3ccc(Cl)cc3Cl)cc2)cc1 [Example 60, N-{4-[3-(2,4-Dichlorophenoxy)prop-1-yn-1-yl]phenyl}-2-[4-(ethylsulfonyl)phenyl]acetamide]",> 100 nM,92.6%,90.4%
"CCS(=O)(=O)c1ccc(CC(=O)Nc2ccc(C#CCOc3ccc(Cl)c(Cl)c3)cc2)cc1 [Example 61, N-{4-[3-(3,4-Dichlorophenoxy)prop-1-yn-1-yl]phenyl}-2-[4-(ethylsulfonyl)phenyl]acetamide]",> 100 nM,85.5%,92.9%
"CCS(=O)(=O)c1ccc(CC(=O)Nc2ccc(C#CC(C)(C)Oc3ccc(Cl)c(Cl)c3)cc2)cc1 [Example 62, N-{4-[3-(3,4-Dichlorophenoxy)-3-methylbut-1-yn-1-yl]phenyl}-2-[4-(ethylsulfonyl)phenyl]acetamide]",< 50 nM,86.3%,90.2%
"CCS(=O)(=O)c1ccc(CC(=O)Nc2ccc(C#CC(C)(C)Oc3ccc(Cl)cc3Cl)cc2)cc1 [Example 63, N-{4-[3-(2,4-Dichloro-phenoxy)-3-methyl-but-1-yn-1-yl]-phenyl}-2-(4-ethanesulfonyl-phenyl)-acetamide]",< 50 nM,80.5%,84.5%
"CCS(=O)(=O)c1ccc(CC(=O)Nc2ccc(C#CC(C)(C)Oc3ccc(Cl)cc3)cc2)cc1 [Example 64, N-{4-[3-(4-Chloro-phenoxy)-3-methyl-but-1-yn-1-yl]-phenyl}-2-(4-ethanesulfonyl-phenyl)-acetamide]",< 50 nM,82.2%,84.2%
"CCS(=O)(=O)c1ccc(CC(=O)Nc2ccc(C#CC(C)(C)Oc3ccc(Cl)cc3F)cc2)cc1 [Example 65, N-{4-[3-(4-Chloro-2-fluoro-phenoxy)-3-methyl-but-1-yn-1-yl]-phenyl}-2-(4-ethanesulfonyl-phenyl)-acetamide]",< 50 nM,83.9%,88.2%
"CCS(=O)(=O)c1ccc(CC(=O)Nc2ccc(C#CC(C)(C)Oc3ccc(Cl)c(F)c3)cc2)cc1 [Example 66, N-{4-[3-(4-Chloro-3-fluoro-phenoxy)-3-methyl-but-1-yn-1-yl]-phenyl}-2-(4-ethanesulfonyl-phenyl)-acetamide]",< 50 nM,84.3%,87.5%
"CCS(=O)(=O)c1ccc(CC(=O)Nc2ccc(C#CC(C)(C)Oc3ccc(F)cc3Cl)cc2)cc1 [Example 67, N-{4-[3-(2-Chloro-4-fluoro-phenoxy)-3-methyl-but-1-yn-1-yl]-phenyl}-2-(4-ethanesulfonyl-phenyl)-acetamide]",–,70.5%,75.7%
"CCS(=O)(=O)c1ccc(CC(=O)Nc2ccc(C#CC(C)(C)Oc3ccc(F)c(Cl)c3)cc2)cc1 [Example 68, N-{4-[3-(3-Chloro-4-fluoro-phenoxy)-3-methyl-but-1-yn-1-yl]-phenyl}-2-(4-ethanesulfonyl-phenyl)-acetamide]",–,70.7%,79.9%
"CCS(=O)(=O)c1ccc(CC(=O)Nc2ccc(C#CC(C)(C)Oc3ccc(F)cc3F)cc2)cc1 [Example 69, N-{4-[3-(2,4-Difluoro-phenoxy)-3-methyl-but-1-yn-1-yl]-phenyl}-2-(4-ethanesulfonyl-phenyl)-acetamide]",50 to 100 nM,71.6%,81.8%
"CCS(=O)(=O)c1ccc(CC(=O)Nc2ccc(C#CC(C)(C)Oc3ccc(F)c(F)c3)cc2)cc1 [Example 70, N-{4-[3-(3,4-Difluoro-phenoxy)-3-methyl-but-1-yn-1-yl]-phenyl}-2-(4-ethanesulfonyl-phenyl)-acetamide]",< 50 nM,77.7%,81.3%
"CCS(=O)(=O)c1ccc(CC(=O)Nc2ccc(C#CC(C)(C)Oc3cc(F)c(F)c(F)c3)cc2)cc1 [Example 71, 2-(4-Ethanesulfonyl-phenyl)-N-{4-[3-methyl-3-(3,4,5-trifluoro-phenoxy)-but-1-yn-1-yl]-phenyl}-acetamide]",< 50 nM,75.9%,79.9%
"CCS(=O)(=O)c1ccc(CC(=O)Nc2ccc(C#CC(C)(C)Oc3ccc(F)c(F)c3F)cc2)cc1 [Example 72, 2-(4-Ethanesulfonyl-phenyl)-N-{4-[3-methyl-3-(2,3,4-trifluoro-phenoxy)-but-1-yn-1-yl]-phenyl}-acetamide]",< 50 nM,76.2%,79.7%
"CCS(=O)(=O)c1ccc(CC(=O)Nc2ccc(C#CC(C)(C)Oc3c(F)cc(F)cc3F)cc2)cc1 [Example 73, 2-(4-Ethanesulfonyl-phenyl)-N-{4-[3-methyl-3-(2,4,6-trifluoro-phenoxy)-but-1-yn-1-yl]-phenyl}-acetamide]",< 50 nM,75.4%,78.6%
"CCS(=O)(=O)c1ccc(CC(=O)Nc2ccc(C#CC(C)(C)Oc3cc(F)c(F)cc3F)cc2)cc1 [Example 74, 2-(4-Ethanesulfonyl-phenyl)-N-{4-[3-methyl-3-(2,4,5-trifluoro-phenoxy)-but-1-yn-1-yl]-phenyl}-acetamide]",< 50 nM,73.6%,78.8%
"CCS(=O)(=O)c1ccc(CC(=O)Nc2ccc(C#CC(C)(C)Oc3c(F)cc(Cl)cc3F)cc2)cc1 [Example 75, N-{4-[3-(4-Chloro-2,6-difluoro-phenoxy)-3-methyl-but-1-yn-1-yl]-phenyl}-2-(4-ethanesulfonyl-phenyl)-acetamide]",< 50 nM,83.2%,84%
"CCS(=O)(=O)c1ccc(CC(=O)Nc2ccc(C#CC(C)(C)Oc3ccc(C(F)(F)F)cc3)cc2)cc1 [Example 76, 2-(4-Ethanesulfonyl-phenyl)-N-{4-[3-methyl-3-(4-trifluoromethyl-phenoxy)-but-1-yn-1-yl]-phenyl}-acetamide]",< 50 nM,82.2%,86.2%
"CCS(=O)(=O)c1ccc(CC(=O)Nc2ccc(C#CC(C)(C)Oc3ccc(OC(F)(F)F)cc3)cc2)cc1 [Example 77, 2-(4-Ethanesulfonyl-phenyl)-N-{4-[3-methyl-3-(4-trifluoromethoxy-phenoxy)-but-1-yn-1-yl]-phenyl}-acetamide]",< 50 nM,82.8%,87.1%
"CCS(=O)(=O)c1ccc(CC(=O)Nc2ccc(C#CC(C)(C)Oc3ccc(OC(F)F)cc3)cc2)cc1 [Example 78, N-{4-[3-(4-Difluoromethoxy-phenoxy)-3-methyl-but-1-yn-1-yl]-phenyl}-2-(4-ethanesulfonyl-phenyl)-acetamide]",< 50 nM,85.2%,87.4%
"CCS(=O)(=O)c1ccc(CC(=O)Nc2ccc(C#CC(C)(C)Oc3ccc(C#N)cc3)cc2)cc1 [Example 79, N-{4-[3-(4-Cyano-phenoxy)-3-methyl-but-1-yn-1-yl]-phenyl}-2-(4-ethanesulfonyl-phenyl)-acetamide]",< 50 nM,79.9%,86.1%
"CCS(=O)(=O)c1ccc(CC(=O)Nc2ccc(C#CC(C)(C)Oc3ccc(Cl)cc3F)nc2)cc1 [Example 80, N-{6-[3-(4-Chloro-2-fluoro-phenoxy)-3-methyl-but-1-yn-1-yl]-pyridin-3-yl}-2-(4-ethanesulfonyl-phenyl)-acetamide]",–,50.2%,62.4%
"CCS(=O)(=O)c1ccc(CC(=O)Nc2ccc3c(c2)nc(C(C)(C)Oc2ccc(C(F)(F)F)cc2)n3C)cc1 [Example 81, 2-[4-(Ethylsulfonyl)phenyl]-N-(1-methyl-2-{2-[4-(trifluoromethyl)phenoxy]propan-2-yl}-1H-benzimidazol-5-yl)acetamide]",> 100 nM,76%,88.9%
"CCS(=O)(=O)c1ccc(CC(=O)Nc2ccc3c(c2)nc(C(C)(C)Oc2ccc(F)c(F)c2)n3C)cc1 [Example 82, N-{2-[2-(3,4-Difluorophenoxy)propan-2-yl]-1-methyl-1H-benzimidazol-5-yl}-2-[4-(ethylsulfonyl)phenyl]acetamide]",50 to 100 nM,82%,88.4%
"CCS(=O)(=O)c1ccc(CC(=O)Nc2ccc3c(c2)nc(C(C)(C)Oc2ccc(Cl)cc2F)n3C)cc1 [Example 83, N-{2-[1-(4-Chloro-2-fluoro-phenoxy)-1-methyl-ethyl]-1-methyl-1H-benzoimidazol-5-yl}-2-(4-ethanesulfonyl-phenyl)-acetamide]",50 to 100 nM,83.3%,92%
"CCS(=O)(=O)c1ccc(CC(=O)Nc2ccc3c(c2)nc(C(C)(C)Oc2ccc(Cl)cc2Cl)n3C)cc1 [Example 84, N-{2-[2-(2,4-Dichlorophenoxy)propan-2-yl]-1-methyl-1H-benzimidazol-5-yl}-2-[4-(ethylsulfonyl)phenyl]acetamide]",< 50 nM,89.7%,90.2%
"CCS(=O)(=O)c1ccc(CC(=O)Nc2ccc3c(c2)nc(C(C)(C)Oc2ccc(Cl)c(Cl)c2)n3C)cc1 [Example 85, N-{2-[2-(3,4-Dichlorophenoxy)propan-2-yl]-1-methyl-1H-benzimidazol-5-yl}-2-[4-(ethylsulfonyl)phenyl]acetamide]",< 50 nM,87.1%,91.2%
